The results in this text go back to patent US8034382B2, “Preparation method for biodegradable micro-particles containing drugs” (The Board of Trustees of the University of Arkansas, priority 2008, dated 2011).

Data set [1] in a line: Release kinetics of leuprolide acetate from PLGA microparticles (UV absorption of supernatant). The format is physicochemical. Here is the method:
The release kinetics of leuprolide acetate from the PLGA microparticles prepared as described herein was determined and the results are shown in FIG. 1. Concentration of drug in the supernatant was measured by ultraviolet absorption. […] Initial burst release occurs due to the fast dissolution of peptide located at the microparticle surface followed by a time lag of 4-5 days. […] During the middle portion of the curve, peptide release occurs at a near constant rate.
FIG. 2 compares the release curve of FIG. 1 for 10% RG 502H with a published release curve for leuprolide acetate from microparticles formed by conventional oil-in-water emulsion with poly(vinyl alcohol) as emulsifier (D'Souza et al., 2005, AAPS PHARM. Sci. Tech. 6(4), E553).

Data set [2] is described as follows: Encapsulation efficiency of drug in PLA/PLGA microparticles prepared with hydroxyapatite gel (UV absorption). In kind it is physicochemical. Particulars: for pH of aqueous suspension giving best encapsulation efficiency: hydroxyapatite gel suspension, PLA/PLGA polymers. Here is the method:
Leuprolide acetate and poly(lactic acid-co-glycolic acid) (PLGA) RG502H or PLA R202H were dissolved in a 24/76 (v/v) methanol/dichloromethane mixture at a concentration of 20% polymer and 10% leuprolide (w/v) to prepare the polymer-drug solution. An aqueous suspension of hyroxyapatite was prepared by dissolving 6 g of CaO in 400 ml water. Then phosphoric acid was added to adjust the pH of the aqueous suspension to between 9.0 and 10.0. Hydroxyapatite gel was formed in situ in the aqueous suspension under these conditions by the reaction 10 CaO+6 H3PO4=Ca10(PO4)6(OH)2+8 H2O. The drug/polymer solution (2 or 3 ml) was dispersed into the aqueous suspension medium. The dispersion was initially homogenized by a high-shear mixer at 5,000 or more rpm for 5 minutes. The solvents were then evaporated by stirring at 600 rpm for 1 hour or longer. Then concentrated HCl was added slowly until the hydroxyapatite dissolved and the suspension cleared. Hydroxyapatite is dissolved by the reaction Ca10(PO4)6(OH)2+20 HCl=10 CaCl2+6 H3PO4+2 H2O. The solidified microparticles were recovered by centrifugation and filtration.
Encapsulation efficiency refers to the mass of drug recovered in microparticles divided by the starting mass of drug in the polymer-drug phase. To quantify drug in microparticles, the microparticles were first dissolved in an ethanol/dichloroethane (28/72 v/v) mixture. The drug content of the solution was then measured by ultraviolet absorption.
In other experiments, the pH of the suspending medium was varied. […] Small anionic and cationic small molecule drugs were also tested. […] Verapamil HCl and nicardipine HCl were the small-molecule amine-containing drugs tested. Piroxicam, […], and salicylic acid were the small molecule anionic drugs tested.

Some results are limits rather than exact numbers.

For the molecule `CCNC(=O)[C@@H]1CCCN1C(=O)[C@H](CCCNC(=N)N)NC(=O)[C@H](CC(C)C)NC(=O)[C@@H](CC(C)C)NC(=O)[C@H](Cc1ccc(O)cc1)NC(=O)[C@H](CO)NC(=O)[C@H](Cc1c[nH]c2ccccc12)NC(=O)[C@H](Cc1c[nH]cn1)NC(=O)[C@@H]1CCC(=O)N1` [leuprolide acetate, Leuprolide acetate], the “Release curve compared with published curve for conventional o/w emulsion (poly(vinyl alcohol)) microparticles” value in data set [1] (10% RG 502H, FIG. 2, versus D'Souza et al. 2005) is given as “nearly identical”. Further, in data set [1] (PLGA microparticles, FIG. 1), the “Release profile (shape)” value is given as “typical tri-phase” and the “Time lag after initial burst release” value was in the range of 4 to 5 days. The Encapsulation efficiency in data set [2] (pH of the suspending medium 7.0) turned out to be 90%. Further, in data set [2] (pH of the suspending medium pH 9.0 to pH 10.0, hydroxyapatite gel), the Encapsulation efficiency is not below 95%.

On to `COc1ccc2cc([C@H](C)C(=O)O)ccc2c1` [naproxen acid], for which, in data set [2], the “pH of aqueous suspension giving best encapsulation efficiency” value (“pH” for short) is approximately 5.0.

Consider `CN1C(C(=O)Nc2ccccn2)=C(O)c2ccccc2S1(=O)=O` [piroxicam], for which the “pH” value in data set [2] is approximately 5.0.

As for `O=C(O)c1ccccc1O` [salicylic acid], the “pH” value in data set [2] is approximately 5.0.
